Measured values: article PMC13252604, “First Generation Proteolysis Targeting Chimeras (PROTACs) for the Treatment of Progeria” (Advanced Science, 2026)

What was measured:
progerin = target: T1, progerin (Mus musculus, UniProt P48678, DEL608-657); experiment: Progerin degradation, immunoblot in Lmna^G609G/G609G fibroblasts; format: cell-based; conditions: Lmna^G609G/G609G fibroblasts, 5 µM, 8 h, vs vehicle
T1 construct: endogenous in cells; host or cells: immortalized (SV40-LT) fibroblasts from Lmna G609G/G609G mice
T1 sequence (P48678 with tags, fused parts or gaps DEL608-657 limits assumed): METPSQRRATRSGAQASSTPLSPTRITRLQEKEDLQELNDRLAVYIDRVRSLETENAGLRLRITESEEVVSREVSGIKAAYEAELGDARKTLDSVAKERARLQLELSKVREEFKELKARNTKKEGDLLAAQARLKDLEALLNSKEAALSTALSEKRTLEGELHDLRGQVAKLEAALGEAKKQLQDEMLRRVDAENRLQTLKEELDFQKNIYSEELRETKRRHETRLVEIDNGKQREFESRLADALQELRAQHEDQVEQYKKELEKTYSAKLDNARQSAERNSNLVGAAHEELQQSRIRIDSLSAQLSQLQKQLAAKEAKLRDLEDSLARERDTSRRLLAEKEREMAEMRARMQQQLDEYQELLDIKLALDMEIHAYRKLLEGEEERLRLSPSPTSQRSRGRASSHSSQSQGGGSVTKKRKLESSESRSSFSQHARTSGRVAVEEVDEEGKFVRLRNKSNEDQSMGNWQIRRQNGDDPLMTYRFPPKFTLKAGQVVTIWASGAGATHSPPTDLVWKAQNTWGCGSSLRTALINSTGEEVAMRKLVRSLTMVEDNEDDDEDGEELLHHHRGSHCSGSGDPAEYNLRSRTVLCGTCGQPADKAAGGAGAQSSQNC
Description: The ability of compounds 2‐6 to degrade progerin was evaluated in Lmna^G609G/G609G fibroblasts, derived from the progeria mouse model that most closely replicates the human disease phenotype. Lamin A/C antibody was used for immunodetection due to its prevalent use in this context, enabling simultaneous visualization of both lamins and progerin [15].
FIGURE 2 (A) Representative cropped immunoblots and quantification of progerin from Lmna^G609G/G609G fibroblasts. Cells were incubated with vehicle or indicated compound at 5 µM for 8 h. MW, molecular weight (in kDa) markers. (B, C) Concentration and time‐dependency of the reduction of progerin levels induced by compounds 2 and 9. Graphs show quantification of progerin in Lmna^G609G/G609G fibroblasts (immunoblots are shown in Supporting Figure S1). Cells were incubated with vehicle or the indicated compound concentration for 8 h. For time‐course experiments, cells were incubated with vehicle or indicated compound at 5 µM. Bar graphs show mean±sem of 3 independent experiments performed in duplicate. Data were analysed using one‐way ANOVA followed by Dunnett's post–hoc test comparing all groups to the vehicle; ^*, p < 0.05. […]
4. Cell lines and culture.
Progeroid mouse fibroblasts, kindly donated by Prof. Carlos López Otín (Oviedo University, Spain), were isolated from LmnaG609G/G609G mice[19] and wild-type (WT) littermates and immortalized by retroviral transduction with SV40 large T antigen (SV40-LT). Since LmnaG609G/G609G mouse represents the most suitable and widely accepted model of HGPS, as it most faithfully recapitulates the molecular and phenotypic features of the human disease, its use in this study is fully justified. Moreover, although this cell […]
cells have been extensively validated by additional independent studies.[15, 65, 66] […]
experiments, nor does it affect the conclusions presented in our study.
Mouse fibroblasts were grown in Dulbecco’s modified eagle medium (DMEM, Gibco) supplemented with 10% heat inactivated fetal bovine serum (FBS, Gibco), 50 U/mL penicillin, and 50 μg/mL streptomycin (Invitrogen). Human progeroid HGADFN167 LmnaG608G/G608G (G608G) or or healthy HGADFN168 Lmna+/+ (WT) fibroblasts, were obtained from The Progeria Research Foundation (RRIDs CVCL_1Y92 and CVCL_1Y93, respectively) and cultured in DMEM with 20% heat inactivated FBS, 50 U/mL penicillin and 50 μg/mL streptomycin. All cells were incubated in a humidified atmosphere at 37 °C in the presence of 5% CO2 and were confirmed to be free of mycoplasma contamination. […]
Measurements were performed in triplicate, and each experiment was repeated at least three times. The viability values were calculated from the percentage of viable cells with respect to 100% viability of the vehicle-treated cells.
6. Immunoblot and immunocytofluorescence analysis.
Mouse or human progeroid cells were seeded at density of […] or 5 x 10^4 cells respectively on 12-well plates and incubated for 24 h in DMEM medium. For proteosome-dependency assays, cells were pre-treated either with the proteasome inhibitor (S)-MG132 (20 µM) or with the NEDD8-activating enzyme inhibitor MLN4924 (5 µM) for 2 h prior to […]
compound exposure. Then, cells were incubated with compound of interest or DMSO for the appropriate time and lysed with cold laemmli buffer (50 mM Tris-HCl pH 7.4, 150 mM NaCl, 1% Igepal) with a mixture of protease and phosphatase inhibitors (1 mM PMSF, 10 mM NaF, 0.3 mg/mL CalyculinA, 1 mM sodium orthovanadate, 10 mM β-glycerol-phosphate; all from Sigma-Aldrich and complete protease inhibitor cocktail, from Roche). Proteins were denatured at 95 ᵒC for 5 min and the lysates were immediately used or stored at -20 ᵒC until use. Samples were analysed by electrophoresis in polyacrylamide gels (All Kd SDS-PAGE, BioRad) and the proteins transferred to nitrocellulose membranes (GE Healthcare, Amersham). After 1 h of incubation in blocking buffer [20 mM Tris pH 7.6, 150 mM NaCl and 0.1% Tween-20 (TBS-T) with […]

[1] = system: Hutchinson‐Gilford Progeria Syndrome; conditions: progeria patients; cited from earlier work

## Cc1ncsc1-c1ccc(CNC(=O)[C@@H]2C[C@@H](O)CN2C(=O)[C@@H](NC(=O)CCCCC(=O)O[C@H]2Cc3cc4ccc(=O)oc4cc3OC2(C)C)C(C)(C)C)cc1 [compound 11]
progerin
  progerin levels (immunoblot quantification): neither the glutarimide derivative 10 nor the VHL‐ligand‐containing compound 11 led to a significant reduction in progerin levels

## CN1C(=O)CCC(N2C(=O)c3cccc(NCCCCCC(=O)O[C@H]4Cc5cc6ccc(=O)oc6cc5OC4(C)C)c3C2=O)C1=O (some centres unmarked) [compound 13]
progerin
  progerin levels (immunoblot quantification): ineffective in lowering progerin levels

## NC(=O)N1CCC(CC(=O)N2CCC([C@H]3c4ncc(Br)cc4CCc4cc(Cl)cc(Br)c43)CC2)CC1 [lonafarnib]
[1]
  effect on key phenotypic hallmarks of progeria: does not improve some of the key phenotypic hallmarks of progeria
  extension of average life expectancy: up to 33%

## CC1(C)Oc2cc3oc(=O)ccc3cc2C[C@@H]1OC(=O)CCCCCOc1ccc(C2CCC(=O)NC2=O)cc1 (some centres unmarked) [compound 10]
progerin
  progerin levels (immunoblot quantification): neither the glutarimide derivative 10 nor the VHL‐ligand‐containing compound 11 led to a significant reduction in progerin levels
